Experimental data from patent US11787839B2, “Targeting α2δ-1-bound glutamate receptors for treating diseases and disorders” (Board of Regents, The University of Texas System, priority 2017, dated 2023).
Entries after “also recorded” stand apart in the source; their conditions may differ.

Tests used:
[1] = tested on: surface GluN1, GluN2A, GluN2B; experiment: HEK293 cell membrane surface protein analysis (biotinylation); type: cell-based, rat; parameters: dose or concentration left out as unconfirmed; settings: gabapentin for 60 min
Description: Isolation and analysis of HEK293 cell membrane surface proteins: HEK293 cells were transfected with GluN1-1a, GluN2A/GluN2B and/or α2δ-1 after they had grown to 80-90% confluence in 75-cm^2 culture flasks. Cell surface biotinylation was performed using the Pierce Cell Surface Protein Isolation Kit (#89881, Thermo Fisher Scientific) according to the manufacturer's instructions. Briefly, cells were incubated with Sulfo-NHS—SS-biotin, which covalently binds to primary amino groups of extracellular proteins at 4° C. with constant rotation for 30 min. Excess biotin was quenched with quenching solution (Chaplan et al., 1997). The cells were washed, harvested by gentle scraping and lysed using the provided lysis buffer in the cocktail of protease and phosphatase inhibitors (#78440, Thermo Fisher Scientific) for 30 min at 4° C. The lysates were then centrifuged for 2 min at 10,000×g at 4° C., and the clear supernatants were added to NeutrAvidin agarose and incubated for 60 min at 25° C. with end-over-end mixing. The unbound (unbiotinylated) proteins, representing the intracellular fraction, were separated from the captured surface proteins by centrifugation of the column. […] Protein bands were quantified using Image Studio software (version 3.1, LI-COR Biosciences).

α2δ-1-Cav2.2 interaction = target: T1, α2δ-1-Cav2.2 interaction (Rattus norvegicus, UniProt P54290+Q02294); experiment: Co-IP of α2δ-1 and Cav2.2 in spinal cord after intrathecal injection; type: in vivo; settings: SNL and sham rats, intrathecal 1 μg, 60 min
T1 construct: from tissue; host or cells: rat dorsal spinal cord (L5-L6) membrane extracts after intrathecal injection
T1 sequence (P54290 25-944 limits assumed): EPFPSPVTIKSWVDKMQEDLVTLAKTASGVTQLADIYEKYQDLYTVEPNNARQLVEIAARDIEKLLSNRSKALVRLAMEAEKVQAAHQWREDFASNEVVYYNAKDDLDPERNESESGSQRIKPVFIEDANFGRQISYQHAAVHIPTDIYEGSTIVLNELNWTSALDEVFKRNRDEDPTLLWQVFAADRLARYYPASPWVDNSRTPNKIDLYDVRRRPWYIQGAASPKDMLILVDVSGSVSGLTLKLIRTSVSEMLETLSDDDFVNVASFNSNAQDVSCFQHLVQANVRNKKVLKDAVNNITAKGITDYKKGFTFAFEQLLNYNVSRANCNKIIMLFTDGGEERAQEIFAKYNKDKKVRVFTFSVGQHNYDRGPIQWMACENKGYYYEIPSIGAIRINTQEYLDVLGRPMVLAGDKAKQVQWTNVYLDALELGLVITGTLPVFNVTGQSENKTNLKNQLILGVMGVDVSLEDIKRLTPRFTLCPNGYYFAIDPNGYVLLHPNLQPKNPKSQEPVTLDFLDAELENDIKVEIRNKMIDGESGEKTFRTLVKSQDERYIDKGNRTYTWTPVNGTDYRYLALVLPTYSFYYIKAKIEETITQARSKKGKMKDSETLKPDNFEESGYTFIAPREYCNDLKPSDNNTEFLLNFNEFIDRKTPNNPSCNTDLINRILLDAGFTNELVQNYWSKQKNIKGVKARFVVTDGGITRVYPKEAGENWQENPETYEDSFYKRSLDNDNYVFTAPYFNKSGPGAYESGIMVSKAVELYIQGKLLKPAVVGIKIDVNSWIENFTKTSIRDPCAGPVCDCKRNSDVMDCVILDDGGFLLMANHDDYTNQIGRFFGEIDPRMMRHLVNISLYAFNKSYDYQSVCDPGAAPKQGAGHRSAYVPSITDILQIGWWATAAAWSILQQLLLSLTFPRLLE
T1 sequence (Q02294 whole entry): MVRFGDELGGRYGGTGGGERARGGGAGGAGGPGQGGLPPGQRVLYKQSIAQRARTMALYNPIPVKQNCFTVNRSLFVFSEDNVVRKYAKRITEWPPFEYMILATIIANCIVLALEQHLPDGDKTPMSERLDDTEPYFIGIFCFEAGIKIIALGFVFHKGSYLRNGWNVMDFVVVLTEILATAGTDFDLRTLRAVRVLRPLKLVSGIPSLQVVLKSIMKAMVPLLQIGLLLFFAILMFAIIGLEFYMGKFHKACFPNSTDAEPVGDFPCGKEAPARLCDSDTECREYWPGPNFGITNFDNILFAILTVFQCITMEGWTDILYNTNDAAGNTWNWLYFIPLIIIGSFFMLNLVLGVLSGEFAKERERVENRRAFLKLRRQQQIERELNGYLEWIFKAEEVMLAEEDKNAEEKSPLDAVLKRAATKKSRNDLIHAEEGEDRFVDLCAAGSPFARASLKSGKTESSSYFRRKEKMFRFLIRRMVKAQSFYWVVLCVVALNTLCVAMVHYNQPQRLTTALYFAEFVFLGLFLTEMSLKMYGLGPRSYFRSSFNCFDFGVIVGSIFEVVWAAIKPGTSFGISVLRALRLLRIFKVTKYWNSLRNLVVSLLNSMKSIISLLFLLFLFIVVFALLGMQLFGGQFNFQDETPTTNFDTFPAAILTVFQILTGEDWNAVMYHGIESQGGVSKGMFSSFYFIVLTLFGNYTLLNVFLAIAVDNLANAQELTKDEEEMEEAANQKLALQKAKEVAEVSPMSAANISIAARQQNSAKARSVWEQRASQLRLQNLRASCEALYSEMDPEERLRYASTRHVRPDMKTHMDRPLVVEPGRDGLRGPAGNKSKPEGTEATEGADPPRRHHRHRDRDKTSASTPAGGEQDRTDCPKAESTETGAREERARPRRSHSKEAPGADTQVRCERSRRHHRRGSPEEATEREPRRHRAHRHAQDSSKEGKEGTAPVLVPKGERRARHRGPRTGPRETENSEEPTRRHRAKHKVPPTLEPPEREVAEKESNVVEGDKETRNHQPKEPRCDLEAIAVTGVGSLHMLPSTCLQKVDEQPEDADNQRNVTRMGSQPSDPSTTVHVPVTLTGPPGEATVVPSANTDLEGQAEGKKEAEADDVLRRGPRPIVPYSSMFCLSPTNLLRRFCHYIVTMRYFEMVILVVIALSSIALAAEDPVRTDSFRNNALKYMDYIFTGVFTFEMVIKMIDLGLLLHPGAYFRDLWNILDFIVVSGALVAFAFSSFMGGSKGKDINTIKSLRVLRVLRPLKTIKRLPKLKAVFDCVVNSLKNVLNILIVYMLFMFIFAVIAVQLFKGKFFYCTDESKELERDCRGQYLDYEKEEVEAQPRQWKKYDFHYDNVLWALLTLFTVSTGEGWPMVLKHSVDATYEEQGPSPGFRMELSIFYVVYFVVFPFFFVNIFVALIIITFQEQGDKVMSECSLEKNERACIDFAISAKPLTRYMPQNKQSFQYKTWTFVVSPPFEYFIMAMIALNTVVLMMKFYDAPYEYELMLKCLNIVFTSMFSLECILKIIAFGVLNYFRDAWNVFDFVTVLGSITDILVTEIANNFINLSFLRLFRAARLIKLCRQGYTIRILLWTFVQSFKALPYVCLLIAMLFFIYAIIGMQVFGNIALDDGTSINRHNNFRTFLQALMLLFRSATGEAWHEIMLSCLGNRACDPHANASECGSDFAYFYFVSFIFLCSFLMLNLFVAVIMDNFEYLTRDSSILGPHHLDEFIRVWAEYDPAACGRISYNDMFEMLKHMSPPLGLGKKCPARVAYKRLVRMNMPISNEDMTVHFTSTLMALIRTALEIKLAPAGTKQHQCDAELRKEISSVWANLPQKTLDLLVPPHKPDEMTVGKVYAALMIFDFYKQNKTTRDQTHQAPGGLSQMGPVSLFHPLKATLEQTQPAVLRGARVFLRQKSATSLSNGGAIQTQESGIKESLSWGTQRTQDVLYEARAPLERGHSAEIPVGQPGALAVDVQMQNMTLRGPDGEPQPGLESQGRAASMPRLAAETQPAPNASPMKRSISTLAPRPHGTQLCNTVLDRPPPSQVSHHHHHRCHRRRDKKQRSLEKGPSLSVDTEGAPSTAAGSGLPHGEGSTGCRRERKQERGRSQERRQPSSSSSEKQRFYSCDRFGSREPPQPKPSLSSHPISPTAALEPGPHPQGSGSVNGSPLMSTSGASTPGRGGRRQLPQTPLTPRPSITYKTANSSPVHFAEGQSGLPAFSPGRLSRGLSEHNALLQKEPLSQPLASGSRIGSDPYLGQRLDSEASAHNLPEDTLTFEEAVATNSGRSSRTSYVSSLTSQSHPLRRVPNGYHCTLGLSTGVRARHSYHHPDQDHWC
Description: Whole-cell IBa was elicited by a depolarizing pulse to 0 mV for 200 ms from a holding potential of −90 mV. […] Data are means±s.e.m. The numbers of cells recorded in each group are indicated in parentheses (cells from 4 separate experiments). […] The dorsal spinal cord at the L5 and L6 level was removed 60 min after intrathecal injection of α2δ-1Tat peptide (1 μg) or control peptide (1 μg). Membrane proteins were immunoprecipitated first with a rabbit anti-α2δ-1 or anti-IgG antibody. Western immunoblotting was performed by using an anti-Cav2.2 antibody. S, sham; L, SNL; C, control peptide; P, α2δ-1Tat peptide. Data are means±s.e.m.
Coimmunoprecipitation using spinal cord tissue membrane extracts: The dorsal quadrants of rat spinal cords at the L5 and L6 levels or the frozen lumbar spinal cord tissues from four human donors (2 males and 2 females, age ranged 18-42 years, post-mortem interval of 17-29 h; supplied by University of Maryland Brain and Tissue Bank) were dissected and homogenized in ice-cold hypotonic buffer (20 mM Tris [pH 7.4], 1 mM CaCl2, 1 mM MgCl2, and protease inhibitors) for membrane preparation. The nuclei and unbroken cells were removed by centrifugation at 300×g for 5 min. The supernatant was centrifuged for 20 min at 21,000×g. […]

SHRs = experiment: PVN microinjection and recording of ABP and RSNA in SHRs; type: in vivo, rat; settings: 50 pmol
Description: PVN microinjection and recording of renal sympathetic nerve activity: Rats were anaesthetized via i.p. administration of a mixture of α-chloralose (60 mg kg-1) and urethane (800 mg kg-1) and mechanically ventilated with trachea cannulation. The arterial blood pressure (ABP) was monitored via a catheter placed in the left femoral artery, and heart rate (HR) was extracted from the pulsatile pressure wave. A retroperitoneal incision was made, and a branch of the left renal postganglionic sympathetic nerve was isolated under a surgical microscope. The renal sympathetic nerve was cut distally to ensure that afferent activity was not recorded. The ABP, HR and renal sympathetic nerve activity (RSNA) were recorded using a 1401-PLUS analogue-to-digital converter and Spike2 system (Cambridge Electronic Design, Cambridge, UK). After the brain was exposed, a microinjection pipette (tip diameter 20-30 μm) was advanced into the PVN in accordance with the stereotactic co-ordinates: 1.6-2.0 mm caudal to the bregma, 0.5 mm lateral to the midline and 7.0-7.5 mm ventral to the dura. The microinjection was performed using a Nanoject II (Drummond Scientific Company) and monitored using a surgical microscope as described previously (Li & Pan, 2006, 2007; Qiao et al. 2017). […] At the end of each experiment, the electrical background noise was measured after the proximal end of renal nerve was crushed at the end of each experiment. To determine the location of the injection site and diffusion of the drugs in the PVN, 5% rhodamine-labelled fluorescent microspheres (0.04 μm; Molecular Probes) were included in the injection solution. Rats were excluded from the data analysis if the microinjections were misplaced outside the PVN.

NCC1(CC(=O)O)CCCCC1 [gabapentin]
surface protein levels of GluN1, GluN2A and GluN2B increased by α2δ-1 coexpression [1]: normalized; also recorded: reversed

YGRKKRRQRRRVSGLNPSLWSIFGLQFILLWLVSGSRHYLW (a2d1 peptide) [α2δ-1Tat peptide, 30-amino-acid peptide mimicking the C-terminal domain of α2δ-1 fused to the cell-penetrating peptide Tat]
interaction between α2δ-1 and Cav2.2 proteins in the spinal cord tissue (α2δ-1-Cav2.2 interaction): lack of an effect | interaction between α2δ-1 and Cav2.2 proteins in the spinal cord tissue (α2δ-1-Cav2.2 interaction; listed as α2δ-1 Tat peptide): had no effect | ABP and RSNA (SHRs; 50 nL bilaterally into the PVN): significantly decreased | duration of the effect on the mean ABP and RSNA (SHRs; 50 nL into the PVN): more than 60 min
